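Exposure lasted 48 hours, with cells grown in 96-well plates and compounds tested at five concentrations. GI50: concentration for 50% inhibition of growth. TGI is the concentration that stops growth completely.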
Tests used:
Experiment in all cases: DTP human tumour cell line panel, 48 h
786-0 renal = test system: 786-0 renal
A498 renal = test system: A498 renal
A549 NSCLC = test system: A549 NSCLC
ACHN renal = test system: ACHN renal
BT-549 breast = test system: BT-549 breast
CAKI-1 renal = test system: CAKI-1 renal
CCRF-CEM leukemia = test system: CCRF-CEM leukemia
COLO 205 colon = test system: COLO 205 colon
DU-145 prostate = test system: DU-145 prostate
EKVX NSCLC = test system: EKVX NSCLC
HCC-2998 colon = test system: HCC-2998 colon
HCT-116 colon = test system: HCT-116 colon
HCT-15 colon = test system: HCT-15 colon
HL-60(TB) leukemia = test system: HL-60(TB) leukemia
HOP-62 NSCLC = test system: HOP-62 NSCLC
HOP-92 NSCLC = test system: HOP-92 NSCLC
HS 578T breast = test system: HS 578T breast
HT29 colon = test system: HT29 colon
IGROV1 ovarian = test system: IGROV1 ovarian
K-562 leukemia = test system: K-562 leukemia
KM12 colon = test system: KM12 colon
LOX IMVI melanoma = test system: LOX IMVI melanoma
M14 melanoma = test system: M14 melanoma
MALME-3M melanoma = test system: MALME-3M melanoma
MCF7 breast = test system: MCF7 breast
MDA-MB-231 breast = test system: MDA-MB-231 breast
MDA-MB-435 = test system: MDA-MB-435
MOLT-4 leukemia = test system: MOLT-4 leukemia
NCI-H226 lung = test system: NCI-H226 lung
NCI-H23 lung = test system: NCI-H23 lung
NCI-H460 lung = test system: NCI-H460 lung
NCI-H522 lung = test system: NCI-H522 lung
NCI/ADR-RES ovarian = test system: NCI/ADR-RES ovarian
OVCAR-3 ovarian = test system: OVCAR-3 ovarian
OVCAR-4 ovarian = test system: OVCAR-4 ovarian
OVCAR-5 ovarian = test system: OVCAR-5 ovarian
OVCAR-8 ovarian = test system: OVCAR-8 ovarian
PC-3 prostate = test system: PC-3 prostate
RPMI-8226 leukemia = test system: RPMI-8226 leukemia
RXF 393 renal = test system: RXF 393 renal
SF-268 CNS = test system: SF-268 CNS
SF-295 CNS = test system: SF-295 CNS
SF-539 CNS = test system: SF-539 CNS
SK-MEL-2 melanoma = test system: SK-MEL-2 melanoma
SK-MEL-28 melanoma = test system: SK-MEL-28 melanoma
SK-MEL-5 melanoma = test system: SK-MEL-5 melanoma
SK-OV-3 ovarian = test system: SK-OV-3 ovarian
SN12C renal = test system: SN12C renal
SNB-19 CNS = test system: SNB-19 CNS
SNB-75 CNS = test system: SNB-75 CNS
SR leukemia = test system: SR leukemia
SW-620 colon = test system: SW-620 colon
T-47D breast = test system: T-47D breast
TK-10 renal = test system: TK-10 renal
U251 CNS = test system: U251 CNS
UACC-257 melanoma = test system: UACC-257 melanoma
UACC-62 melanoma = test system: UACC-62 melanoma
UO-31 renal = test system: UO-31 renal

With `O=C(CCl)Nc1ccc2c(c1)C(=O)c1ccccc1C2=O` the GI50 (786-0 renal) was 1670 nM, the TGI (786-0 renal) was 3560 nM and the GI50 (A498 renal) was 12200 nM. It also gave a TGI (A498 renal) of 25800 nM, a GI50 (A549 NSCLC) of 8510 nM and a TGI (A549 NSCLC) of 23500 nM. For the same compound, the GI50 (ACHN renal) was 1710 nM, the TGI (ACHN renal) was 3170 nM and the GI50 (BT-549 breast) was 1460 nM. It also gave a TGI (BT-549 breast) of 3580 nM, a GI50 (CAKI-1 renal) of 1590 nM and a TGI (CAKI-1 renal) of 2960 nM. The GI50 (CCRF-CEM leukemia) was 676 nM, the TGI (CCRF-CEM leukemia) was greater than 100000 nM and the GI50 (COLO 205 colon) was 1480 nM. For the same compound, the TGI (COLO 205 colon) was 3330 nM, the GI50 (DU-145 prostate) was 1800 nM and the TGI (DU-145 prostate) was 3360 nM. It also gave a GI50 (EKVX NSCLC) of 2200 nM, a TGI (EKVX NSCLC) of 6350 nM and a GI50 (HCC-2998 colon) of 1860 nM. The TGI (HCC-2998 colon) was 3650 nM, the GI50 (HCT-116 colon) was 790 nM and the TGI (HCT-116 colon) was 2970 nM. It also gave a GI50 (HCT-15 colon) of 730 nM, a TGI (HCT-15 colon) of 2440 nM and a GI50 (HL-60(TB) leukemia) of 2410 nM. For the same compound, the TGI (HL-60(TB) leukemia) was 5330 nM, the GI50 (HOP-62 NSCLC) was 2980 nM and the TGI (HOP-62 NSCLC) was 8500 nM. It also gave a GI50 (HOP-92 NSCLC) of 3720 nM, a TGI (HOP-92 NSCLC) of 9730 nM and a GI50 (HS 578T breast) of 3560 nM. For the same compound, the TGI (HS 578T breast) was 20100 nM, the GI50 (HT29 colon) was 1660 nM and the TGI (HT29 colon) was 3800 nM. It also gave a GI50 (IGROV1 ovarian) of 990 nM, a TGI (IGROV1 ovarian) of 3230 nM and a GI50 (K-562 leukemia) of 1030 nM. For the same compound, the TGI (K-562 leukemia) was greater than 100000 nM, the GI50 (KM12 colon) was 3030 nM and the TGI (KM12 colon) was 9340 nM. The GI50 (LOX IMVI melanoma) was 390 nM, the TGI (LOX IMVI melanoma) was 994 nM and the GI50 (M14 melanoma) was 1310 nM. It also gave a TGI (M14 melanoma) of 2980 nM, a GI50 (MALME-3M melanoma) of 1390 nM and a TGI (MALME-3M melanoma) of 3110 nM. It also gave a GI50 (MCF7 breast) of 1630 nM, a TGI (MCF7 breast) of 3640 nM and a GI50 (MDA-MB-231 breast) of 1650 nM. For the same compound, the TGI (MDA-MB-231 breast) was 4640 nM, the GI50 (MDA-MB-435) was 2050 nM and the TGI (MDA-MB-435) was 5460 nM. For the same compound, the GI50 (MOLT-4 leukemia) was 2240 nM, the TGI (MOLT-4 leukemia) was greater than 100000 nM and the GI50 (NCI-H226 lung) was 2390 nM. The TGI (NCI-H226 lung) was 6760 nM, the GI50 (NCI-H23 lung) was 1700 nM and the TGI (NCI-H23 lung) was 4150 nM. The GI50 (NCI-H460 lung) was 2130 nM, the TGI (NCI-H460 lung) was 5610 nM and the GI50 (NCI-H522 lung) was 533 nM. For the same compound, the TGI (NCI-H522 lung) was 1220 nM, the GI50 (NCI/ADR-RES ovarian) was 2160 nM and the TGI (NCI/ADR-RES ovarian) was 6560 nM. It also gave a GI50 (OVCAR-3 ovarian) of 1720 nM, a TGI (OVCAR-3 ovarian) of 3270 nM and a GI50 (OVCAR-4 ovarian) of 3480 nM. For the same compound, the TGI (OVCAR-4 ovarian) was 11300 nM, the GI50 (OVCAR-5 ovarian) was 2500 nM and the TGI (OVCAR-5 ovarian) was 6890 nM. The GI50 (OVCAR-8 ovarian) was 2350 nM, the TGI (OVCAR-8 ovarian) was 6350 nM and the GI50 (PC-3 prostate) was 2770 nM. The TGI (PC-3 prostate) was 11600 nM, the GI50 (RPMI-8226 leukemia) was 2040 nM and the TGI (RPMI-8226 leukemia) was 5620 nM. The GI50 (RXF 393 renal) was 2000 nM, the TGI (RXF 393 renal) was 3780 nM and the GI50 (SF-268 CNS) was 1790 nM. The TGI (SF-268 CNS) was 4590 nM, the GI50 (SF-295 CNS) was 2420 nM and the TGI (SF-295 CNS) was 10500 nM. It also gave a GI50 (SF-539 CNS) of 2440 nM, a TGI (SF-539 CNS) of 6490 nM and a GI50 (SK-MEL-2 melanoma) of 1580 nM. The TGI (SK-MEL-2 melanoma) was 3850 nM, the GI50 (SK-MEL-28 melanoma) was 3800 nM and the TGI (SK-MEL-28 melanoma) was 9980 nM. The GI50 (SK-MEL-5 melanoma) was 1160 nM, the TGI (SK-MEL-5 melanoma) was 2420 nM and the GI50 (SK-OV-3 ovarian) was 3710 nM. It also gave a TGI (SK-OV-3 ovarian) of 17000 nM, a GI50 (SN12C renal) of 1410 nM and a TGI (SN12C renal) of 3010 nM. It also gave a GI50 (SNB-19 CNS) of 2940 nM, a TGI (SNB-19 CNS) of 11500 nM and a GI50 (SNB-75 CNS) of 2190 nM. The TGI (SNB-75 CNS) was 8440 nM, the GI50 (SR leukemia) was 56.7 nM and the TGI (SR leukemia) was greater than 100000 nM. The GI50 (SW-620 colon) was 1430 nM, the TGI (SW-620 colon) was 2920 nM and the GI50 (T-47D breast) was 1110 nM. It also gave a TGI (T-47D breast) of 2870 nM, a GI50 (TK-10 renal) of 1870 nM and a TGI (TK-10 renal) of 3720 nM. The GI50 (U251 CNS) was 1860 nM, the TGI (U251 CNS) was 4110 nM and the GI50 (UACC-257 melanoma) was 5590 nM. For the same compound, the TGI (UACC-257 melanoma) was 13900 nM, the GI50 (UACC-62 melanoma) was 1510 nM and the TGI (UACC-62 melanoma) was 3170 nM. For the same compound, the GI50 (UO-31 renal) was 1730 nM and the TGI (UO-31 renal) was 3470 nM.
